Results: paper PMC7933434, “Entropy-driven binding of gut bacterial β-glucuronidase inhibitors ameliorates irinotecan-induced toxicity” (Communications Biology, 2021)
Several values for one entry are separate records, joined by “and”; a condition that tells them apart may be missing. Identical values can stand only once.

Key:
[1] = biological target: LgGUS (Lactobacillus gasseri GUS) (Lactobacillus gasseri, UniProt Q9AHJ8); test: GUS inhibition assay, hydrolysis of 4-methylumbelliferyl-β-glucuronide, LgGUS; assay type: biochemical; set-up: GUS activity (hydrolysis rate of MUG) / 1/v: unit not given here; details: for Ki: LgGUS
[2] = biological target: BdGUS (Bifidobacterium dentium GUS) (Bifidobacterium dentium, UniProt D2Q7B1); test: biochemical; set-up: GUS activity (hydrolysis rate of MUG) / 1/v: unit not given here
[3] = [Inhibitor 4] = 0.1 μM, [MUG] 0.0375 mM
[4] = [Inhibitor 4] = 0.1 μM, [MUG] 0.05 mM
[5] = [Inhibitor 4] = 0.1 μM, [MUG] 0.075 mM
[6] = [Inhibitor 4] = 0.1 μM, [MUG] 0.15 mM
[7] = [Inhibitor 4] = 0.2 μM, [MUG] 0.0375 mM
[8] = [Inhibitor 4] = 0.2 μM, [MUG] 0.05 mM
[9] = [Inhibitor 4] = 0.2 μM, [MUG] 0.075 mM
[10] = [Inhibitor 4] = 0.2 μM, [MUG] 0.15 mM
[11] = [Inhibitor 4] = 0.4 μM, [MUG] 0.0375 mM
[12] = [Inhibitor 4] = 0.4 μM, [MUG] 0.05 mM
[13] = [Inhibitor 4] = 0.4 μM, [MUG] 0.075 mM
[14] = [Inhibitor 4] = 0.4 μM, [MUG] 0.15 mM
[15] = [Inhibitor 4] = 0.6 μM, [MUG] 0.0375 mM
[16] = [Inhibitor 4] = 0.6 μM, [MUG] 0.05 mM
[17] = [Inhibitor 4] = 0.6 μM, [MUG] 0.075 mM
[18] = [Inhibitor 4] = 0.6 μM, [MUG] 0.15 mM
[19] = [Inhibitor 4] = 0.05 μM, [MUG] 0.08 mM
[20] = [Inhibitor 4] = 0.05 μM, [MUG] 0.125 mM
[21] = [Inhibitor 4] = 0.05 μM, [MUG] 0.25 mM
[22] = [Inhibitor 4] = 0.05 μM, [MUG] 0.5 mM
[23] = [Inhibitor 4] = 0.15 μM, [MUG] 0.08 mM
[24] = [Inhibitor 4] = 0.15 μM, [MUG] 0.125 mM
[25] = [Inhibitor 4] = 0.15 μM, [MUG] 0.25 mM
[26] = [Inhibitor 4] = 0.15 μM, [MUG] 0.5 mM
[27] = [Inhibitor 4] = 0.3 μM, [MUG] 0.08 mM
[28] = [Inhibitor 4] = 0.3 μM, [MUG] 0.125 mM
[29] = [Inhibitor 4] = 0.3 μM, [MUG] 0.25 mM

Sequence of LgGUS (Lactobacillus gasseri GUS) (Q9AHJ8 1-598): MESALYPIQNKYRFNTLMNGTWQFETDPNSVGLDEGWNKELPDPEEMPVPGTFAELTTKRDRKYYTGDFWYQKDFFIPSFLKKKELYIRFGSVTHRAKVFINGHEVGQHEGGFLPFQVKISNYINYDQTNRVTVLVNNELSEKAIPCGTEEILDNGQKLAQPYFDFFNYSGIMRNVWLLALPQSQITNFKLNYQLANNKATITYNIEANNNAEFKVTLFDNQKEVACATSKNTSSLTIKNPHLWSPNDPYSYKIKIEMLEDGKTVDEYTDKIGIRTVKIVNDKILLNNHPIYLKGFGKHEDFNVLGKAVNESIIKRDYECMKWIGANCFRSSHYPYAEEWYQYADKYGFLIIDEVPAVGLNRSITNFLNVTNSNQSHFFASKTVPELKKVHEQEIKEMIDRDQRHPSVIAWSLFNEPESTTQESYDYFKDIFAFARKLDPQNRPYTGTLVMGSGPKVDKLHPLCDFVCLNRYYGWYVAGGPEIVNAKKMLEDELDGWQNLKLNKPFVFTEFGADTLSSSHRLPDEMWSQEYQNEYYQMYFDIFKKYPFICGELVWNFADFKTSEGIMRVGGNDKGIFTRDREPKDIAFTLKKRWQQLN
Sequence of BdGUS (Bifidobacterium dentium GUS) (D2Q7B1 1-668): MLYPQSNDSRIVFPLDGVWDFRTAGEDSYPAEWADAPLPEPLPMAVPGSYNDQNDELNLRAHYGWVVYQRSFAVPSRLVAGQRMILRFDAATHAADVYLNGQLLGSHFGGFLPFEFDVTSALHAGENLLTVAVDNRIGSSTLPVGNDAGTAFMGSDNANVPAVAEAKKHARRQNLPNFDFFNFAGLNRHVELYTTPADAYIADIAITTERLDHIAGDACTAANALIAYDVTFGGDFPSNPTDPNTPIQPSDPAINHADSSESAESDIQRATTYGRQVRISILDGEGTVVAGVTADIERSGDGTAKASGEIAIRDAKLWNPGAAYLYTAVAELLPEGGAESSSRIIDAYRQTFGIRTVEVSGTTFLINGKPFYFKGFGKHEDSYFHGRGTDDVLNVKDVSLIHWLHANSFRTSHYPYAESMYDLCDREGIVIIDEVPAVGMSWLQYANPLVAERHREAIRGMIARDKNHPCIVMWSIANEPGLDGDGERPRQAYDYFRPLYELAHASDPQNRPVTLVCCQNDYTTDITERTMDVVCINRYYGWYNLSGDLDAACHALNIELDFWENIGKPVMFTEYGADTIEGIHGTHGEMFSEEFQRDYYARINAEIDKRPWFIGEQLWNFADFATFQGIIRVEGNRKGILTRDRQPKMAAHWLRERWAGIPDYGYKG

In the case of CCCCCCCCC[C@@H]1NC[C@@H](O)[C@H](O)[C@H]1C(=O)O [Inhibitor 4, C6-nonyl UIFG], the Ki [1] is reported as 270 nM, the Ki ([1]; 50 mM sodium acetate pH 4.5, 37 °C) is reported as 270 ± 74 nM and the 1/v [1, 3] is reported as 0.07099 and 0.06547 and 0.07752. The “GUS activity (hydrolysis rate of MUG)” value [1, 3] was 17345 and 18805 and 15888, the 1/v [1, 4] was 0.08248 and 0.08036 and 0.08633 and the “GUS activity (hydrolysis rate of MUG)” value [1, 4] was 14936 and 15328 and 14270. For the same compound, the 1/v [1, 5] was 0.1044 and 0.09961 and 0.1132, the “GUS activity (hydrolysis rate of MUG)” value [1, 5] was 11804 and 12374 and 10895 and the 1/v [1, 6] was 0.1278 and 0.1207 and 0.1294. For the same compound, the “GUS activity (hydrolysis rate of MUG)” value [1, 6] was 9649 and 10216 and 9535, the 1/v [1, 7] was 0.05896 and 0.0562 and 0.06114 and the “GUS activity (hydrolysis rate of MUG)” value [1, 7] was 20877 and 21902 and 20134. For the same compound, the 1/v [1, 8] was 0.07315 and 0.0639 and 0.07306, the “GUS activity (hydrolysis rate of MUG)” value [1, 8] was 16834 and 19266 and 16856 and the 1/v [1, 9] was 0.08853 and 0.08384 and 0.0916. The “GUS activity (hydrolysis rate of MUG)” value [1, 9] was 13918 and 14693 and 13452, the 1/v [1, 10] was 0.113 and 0.1097 and 0.1193 and the “GUS activity (hydrolysis rate of MUG)” value [1, 10] was 10909 and 11240 and 10335. For the same compound, the 1/v [1, 11] was 0.04482 and 0.03964 and 0.04854, the “GUS activity (hydrolysis rate of MUG)” value [1, 11] was 27452 and 31030 and 25348 and the 1/v [1, 12] was 0.06247 and 0.0466 and 0.0623. The “GUS activity (hydrolysis rate of MUG)” value [1, 12] was 19707 and 26401 and 19760, the 1/v [1, 13] was 0.07433 and 0.06177 and 0.07489 and the “GUS activity (hydrolysis rate of MUG)” value [1, 13] was 16569 and 19929 and 16445. The 1/v [1, 14] was 0.09796 and 0.08796 and 0.1041, the “GUS activity (hydrolysis rate of MUG)” value [1, 14] was 12581 and 14006 and 11837 and the 1/v [1, 15] was 0.03481 and 0.03381 and 0.03972. For the same compound, the “GUS activity (hydrolysis rate of MUG)” value [1, 15] was 35328 and 36376 and 30969, the 1/v [1, 16] was 0.04379 and 0.03975 and 0.04826 and the “GUS activity (hydrolysis rate of MUG)” value [1, 16] was 28094 and 30946 and 25494. For the same compound, the 1/v [1, 17] was 0.05918 and 0.05295 and 0.06497, the “GUS activity (hydrolysis rate of MUG)” value [1, 17] was 20799 and 23242 and 18949 and the 1/v [1, 18] was 0.08688 and 0.08016 and 0.09205. The “GUS activity (hydrolysis rate of MUG)” value [1, 18] was 14180 and 15366 and 13387, the Ki ([2]; BdGUS) was 440 nM and the 1/v [2, 19] was 0.1206 and 0.1178 and 0.1199. For the same compound, the “GUS activity (hydrolysis rate of MUG)” value [2, 19] was 1.851 and 1.896 and 1.862, the 1/v [2, 20] was 0.09548 and 0.09298 and 0.09392 and the “GUS activity (hydrolysis rate of MUG)” value [2, 20] was 2.339 and 2.4016 and 2.377. The 1/v [2, 21] was 0.06502 and 0.06335 and 0.06665, the “GUS activity (hydrolysis rate of MUG)” value [2, 21] was 3.434 and 3.525 and 3.35 and the 1/v [2, 22] was 0.04786 and 0.04662 and 0.0491. For the same compound, the “GUS activity (hydrolysis rate of MUG)” value [2, 22] was 4.665 and 4.79 and 4.548, the 1/v [2, 23] was 0.1451 and 0.1465 and 0.1466 and the “GUS activity (hydrolysis rate of MUG)” value [2, 23] was 1.539 and 1.524 and 1.523. For the same compound, the 1/v [2, 24] was 0.1144 and 0.1135 and 0.113, the “GUS activity (hydrolysis rate of MUG)” value [2, 24] was 1.951 and 1.968 and 1.976 and the 1/v [2, 25] was 0.07405 and 0.07448 and 0.0755. The “GUS activity (hydrolysis rate of MUG)” value [2, 25] was 3.015 and 2.998 and 2.957, the 1/v [2, 26] was 0.05196 and 0.05207 and 0.05497 and the “GUS activity (hydrolysis rate of MUG)” value [2, 26] was 4.298 and 4.288 and 4.062. For the same compound, the 1/v [2, 27] was 0.2039 and 0.1961 and 0.2029, the “GUS activity (hydrolysis rate of MUG)” value [2, 27] was 1.095 and 1.138 and 1.1007 and the 1/v [2, 28] was 0.1529 and 0.1514 and 0.1472. The “GUS activity (hydrolysis rate of MUG)” value [2, 28] was 1.4607 and 1.475 and 1.517, the 1/v [2, 29] was 0.09524 and 0.09338 and 0.09505 and the “GUS activity (hydrolysis rate of MUG)” value [2, 29] was 2.344 and 2.391 and 2.349. For the same compound, the 1/v ([2]; [Inhibitor 4] = 0.3 μM, [MUG] 0.5 mM) was 0.06409 and 0.06318 and 0.06381.
